This is an account of results in patent publication US11987588B2, “Modulators of the beta-3 adrenergic receptor useful for the treatment or prevention of heart failure and disorders related thereto” (Arena Pharmaceuticals, Inc., priority 2017, dated 2024).

The assay addresses Beta-3 Adrenergic Receptor (Homo sapiens (Human), UniProt P13945). The assay can be described thus: Homogeneous Time-Resolved Fluorescence (HTRF) cAMP antagonist assay, IC50 determination. It is filed as cell-based. The conditions noted are these: CHO-K1 cells stably expressing recombinant receptor, isoproterenol at EC90. An outline of the steps: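 CHO-K1 cells stably expressing receptor, 1500 cells/well, preincubated briefly with 10-point 5-fold compound series (top final typically 10 or 100 μM) in PBS with 1 mM IBMX, then challenged with isoproterenol at EC90 for 1 h at room temperature. cAMP read by HTRF against on-plate standard curve; IC50 from dose-response.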
Background: In TR-FRET formats the signal depends on donor and acceptor labels being close together.

Sequence of Beta-3 Adrenergic Receptor (P13945 whole entry, species assumed): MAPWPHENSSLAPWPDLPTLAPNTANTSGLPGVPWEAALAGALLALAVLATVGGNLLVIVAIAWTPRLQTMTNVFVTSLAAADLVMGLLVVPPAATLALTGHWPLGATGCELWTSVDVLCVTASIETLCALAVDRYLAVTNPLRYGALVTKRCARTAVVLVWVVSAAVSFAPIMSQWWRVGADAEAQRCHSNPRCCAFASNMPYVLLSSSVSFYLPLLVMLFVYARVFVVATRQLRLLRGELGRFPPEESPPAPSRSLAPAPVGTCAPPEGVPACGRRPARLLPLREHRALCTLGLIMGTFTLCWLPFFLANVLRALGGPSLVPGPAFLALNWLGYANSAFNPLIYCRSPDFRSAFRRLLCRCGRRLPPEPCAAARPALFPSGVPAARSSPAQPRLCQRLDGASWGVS

For the compound `O=S(=O)(NC1(CO)CC1)c1cccc(OC[C@@H](O)CNC2COC3(CCN(S(=O)(=O)c4ccc5ccccc5c4)CC3)C2)c1` (stereo partly drawn) [Compound 99, 3-((2S)-2-hydroxy-3-(8-(naphthalen-2-ylsulfonyl)-1-oxa-8-azaspiro[4.5]decan-3-ylamino)propoxy)-N-(1-(hydroxymethyl)cyclopropyl)benzenesulfonamide], the IC50 (commonly the concentration needed to halve the response being measured) was 121 nM.

On to `CNS(=O)(=O)c1cccc(OC[C@@H](O)CN[C@H]2COC3(CCN(S(=O)(=O)c4cccc5nsnc45)CC3)C2)c1` [Compound 245, 3-((S)-3-((R)-8-(benzo[c][1,2,5]thiadiazol-4-ylsulfonyl)-1-oxa-8-azaspiro[4.5]decan-3-ylamino)-2-hydroxypropoxy)-N-methylbenzenesulfonamide], for which the IC50 stood at 15.5 nM. Turning to `CNS(=O)(=O)c1cccc(OC[C@@H](O)CNC2COC3(CCN(S(=O)(=O)c4cccc(-c5ccn(C)c5)c4)CC3)C2)c1` (stereo partly drawn) [Compound 76, 3-((2S)-2-hydroxy-3-(8-(3-(1-methyl-1H-pyrrol-3-yl)phenylsulfonyl)-1-oxa-8-azaspiro[4.5]decan-3-ylamino)propoxy)-N-methylbenzenesulfonamide], the IC50 stood at 26.5 nM. Then `CNS(=O)(=O)c1cccc(OC[C@@H](O)CNC2COC3(CCN(S(=O)(=O)c4cc(-c5ccc(CN)cc5)ccc4Cl)CC3)C2)c1` (stereo partly drawn) [Compound 377, 3-((2S)-3-(8-(4′-(aminomethyl)-4-chlorobiphenyl-3-ylsulfonyl)-1-oxa-8-azaspiro[4.5]decan-3-ylamino)-2-hydroxypropoxy)-N-methylbenzenesulfonamide], with 18.9 nM; and `CN1CCOc2ncc(S(=O)(=O)N3CCC4(CC3)C[C@@H](NC[C@H](O)COc3cccc(S(=O)(=O)NCC(F)F)c3)CO4)cc21` [Compound 461, N-(2,2-difluoroethyl)-3-((S)-2-hydroxy-3-((R)-8-(1-methyl-2,3-dihydro-1H-pyrido[2,3-b][1,4]oxazin-7-ylsulfonyl)-1-oxa-8-azaspiro[4.5]decan-3-ylamino)propoxy)benzenesulfonamide], with 31.9 nM. Then `CNS(=O)(=O)c1cccc(OC[C@@H](O)CNC2COC3(CCN(S(=O)(=O)c4cccnc4)CC3)C2)c1` (stereo partly drawn) [Compound 324, 3-((2S)-2-hydroxy-3-(8-(pyridin-3-ylsulfonyl)-1-oxa-8-azaspiro[4.5]decan-3-ylamino)propoxy)-N-methylbenzenesulfonamide], with 78 nM. As to `CNS(=O)(=O)c1cccc(OC[C@@H](O)CN[C@H]2COC3(CCN(S(=O)(=O)c4c[nH]c5ncccc45)CC3)C2)c1` [Compound 507, 3-((S)-3-((R)-8-(1H-pyrrolo[2,3-b]pyridin-3-ylsulfonyl)-1-oxa-8-azaspiro[4.5]decan-3-ylamino)-2-hydroxypropoxy)-N-methylbenzenesulfonamide], the IC50 is 58.8 nM. In the case of `CNS(=O)(=O)c1cccc(OC[C@@H](O)CNC2COC3(CCN(S(=O)(=O)c4cccc(-c5c(C)noc5C)c4)CC3)C2)c1` (stereo partly drawn) [Compound 59, 3-((2S)-3-(8-(3-(3,5-dimethylisoxazol-4-yl)phenylsulfonyl)-1-oxa-8-azaspiro[4.5]decan-3-ylamino)-2-hydroxypropoxy)-N-methylbenzenesulfonamide], the IC50 was 14.5 nM. Then `CCN1CCC(NS(=O)(=O)c2cccc(OC[C@@H](O)CNC3COC4(CCN(S(=O)(=O)c5ccc6ccccc6c5)CC4)C3)c2)CC1` (stereo partly drawn) [Compound 165, N-(1-ethylpiperidin-4-yl)-3-((2S)-2-hydroxy-3-(8-(naphthalen-2-ylsulfonyl)-1-oxa-8-azaspiro[4.5]decan-3-ylamino)propoxy)benzenesulfonamide], with 311 nM; and `CNS(=O)(=O)c1cccc(OC[C@@H](O)CNC2COC3(CCN(S(=O)(=O)c4ccc5occc5c4)CC3)C2)c1` (stereo partly drawn) [Compound 331, 3-((2S)-3-(8-(benzofuran-5-ylsulfonyl)-1-oxa-8-azaspiro[4.5]decan-3-ylamino)-2-hydroxypropoxy)-N-methylbenzenesulfonamide], with 19.6 nM. With `CNS(=O)(=O)c1cccc(OC[C@@H](O)CN[C@H]2COC3(CCN(S(=O)(=O)c4cnc5ccn(C)c5c4)CC3)C2)c1` [Compound 526, 3-((S)-2-hydroxy-3-((R)-8-(1-methyl-1H-pyrrolo[3,2-b]pyridin-6-ylsulfonyl)-1-oxa-8-azaspiro[4.5]decan-3-ylamino)propoxy)-N-methylbenzenesulfonamide] the figure was 6.97 nM; with `CNS(=O)(=O)c1cccc(OC[C@@H](O)CNC2COC3(CCN(S(=O)(=O)c4ccc(F)cc4Cl)CC3)C2)c1` (stereo partly drawn) [Compound 200, 3-((2S)-3-(8-(2-chloro-4-fluorophenylsulfonyl)-1-oxa-8-azaspiro[4.5]decan-3-ylamino)-2-hydroxypropoxy)-N-methylbenzenesulfonamide], 22.2 nM.

In the case of `CNS(=O)(=O)c1cccc(OC[C@@H](O)CNC2COC3(CCN(S(=O)(=O)c4cccc(-c5ccc(S(N)(=O)=O)cc5)c4)CC3)C2)c1` (stereo partly drawn) [Compound 85, 3′-(3-((S)-2-hydroxy-3-(3-(N-methylsulfamoyl)phenoxy)propylamino)-1-oxa-8-azaspiro[4.5]decan-8-ylsulfonyl)biphenyl-4-sulfonamide], the IC50 turned out to be 9.73 nM.

With `CNS(=O)(=O)c1cccc(OC[C@@H](O)CNC2COC3(CCN(S(=O)(=O)c4ccc(N(C)C)nc4)CC3)C2)c1` (stereo partly drawn) [Compound 422, 3-((2S)-3-(8-(6-(dimethylamino)pyridin-3-ylsulfonyl)-1-oxa-8-azaspiro[4.5]decan-3-ylamino)-2-hydroxypropoxy)-N-methylbenzenesulfonamide], the IC50 turned out to be 16.7 nM. For the compound `CNS(=O)(=O)c1cccc(OC[C@@H](O)CNC2COC3(CCN(S(=O)(=O)c4ccc(OC)c5ccccc45)CC3)C2)c1` (stereo partly drawn) [Compound 258, 3-((2S)-2-hydroxy-3-(8-(4-methoxynaphthalen-1-ylsulfonyl)-1-oxa-8-azaspiro[4.5]decan-3-ylamino)propoxy)-N-methylbenzenesulfonamide], the IC50 was determined as 67.9 nM. With `CNS(=O)(=O)c1cccc(OC[C@@H](O)CN[C@H]2COC3(CCN(S(=O)(=O)c4cnc5c(c4)N(C)C[C@H](C)O5)CC3)C2)c1` [Compound 472, 3-((S)-3-((R)-8-((S)-1,3-dimethyl-2,3-dihydro-1H-pyrido[2,3-b][1,4]oxazin-7-ylsulfonyl)-1-oxa-8-azaspiro[4.5]decan-3-ylamino)-2-hydroxypropoxy)-N-methylbenzenesulfonamide] the figure was 35.4 nM; with `CNS(=O)(=O)c1cccc(OC[C@@H](O)CNC2COC3(CCN(S(=O)(=O)c4ccc5ncccc5c4)CC3)C2)c1` (stereo partly drawn) [Compound 323, 3-((2S)-2-hydroxy-3-(8-(quinolin-6-ylsulfonyl)-1-oxa-8-azaspiro[4.5]decan-3-ylamino)propoxy)-N-methylbenzenesulfonamide], 24.8 nM. Consider `CNS(=O)(=O)c1cccc(OC[C@@H](O)CNC2COC3(CCN(S(=O)(=O)c4ccc(Cl)c(C)c4)CC3)C2)c1` (stereo partly drawn) [Compound 151, 3-((2S)-3-(8-(4-chloro-3-methylphenylsulfonyl)-1-oxa-8-azaspiro[4.5]decan-3-ylamino)-2-hydroxypropoxy)-N-methylbenzenesulfonamide], for which the IC50 was 5.38 nM.

On to `CC(C)NS(=O)(=O)c1cccc(OC[C@@H](O)CNC2COC3(CCN(S(=O)(=O)c4ccc5ccccc5c4)CC3)C2)c1` (stereo partly drawn) [Compound 6, 3-((2S)-2-hydroxy-3-(8-(naphthalen-2-ylsulfonyl)-1-oxa-8-azaspiro[4.5]decan-3-ylamino)propoxy)-N-isopropylbenzenesulfonamide], for which the IC50 is 24.3 nM. In the case of `CCN1CCOc2ccc(S(=O)(=O)N3CCC4(CC3)CC(NC[C@H](O)COc3cccc(S(=O)(=O)NC)c3)CO4)cc21` (stereo partly drawn) [Compound 333, 3-((2S)-3-(8-(4-ethyl-3,4-dihydro-2H-benzo[b][1,4]oxazin-6-ylsulfonyl)-1-oxa-8-azaspiro[4.5]decan-3-ylamino)-2-hydroxypropoxy)-N-methylbenzenesulfonamide], the IC50 came to 9.02 nM. Turning to `CNS(=O)(=O)c1cccc(OC[C@@H](O)CNC2COC3(CCN(S(=O)(=O)c4ccc(C)c(-c5ccc(CN)cc5)c4)CC3)C2)c1` (stereo partly drawn) [Compound 376, 3-((2S)-3-(8-(4′-(aminomethyl)-6-methylbiphenyl-3-ylsulfonyl)-1-oxa-8-azaspiro[4.5]decan-3-ylamino)-2-hydroxypropoxy)-N-methylbenzenesulfonamide], the IC50 was determined as 499 nM. In the case of `CNS(=O)(=O)c1cccc(OC[C@@H](O)CN[C@H]2COC3(CCN(c4nccc(N)n4)CC3)C2)c1` [Compound 569, 3-((S)-3-((R)-8-(4-aminopyrimidin-2-yl)-1-oxa-8-azaspiro[4.5]decan-3-ylamino)-2-hydroxypropoxy)-N-methylbenzenesulfonamide], the IC50 was found to be 427 nM.

Take `CNS(=O)(=O)c1cccc(OC[C@@H](O)CN[C@H]2COC3(CCN(S(=O)(=O)c4cnc5nc[nH]c5c4)CC3)C2)c1` [Compound 495, 3-((S)-3-((R)-8-(1H-imidazo[4,5-b]pyridin-6-ylsulfonyl)-1-oxa-8-azaspiro[4.5]decan-3-ylamino)-2-hydroxypropoxy)-N-methylbenzenesulfonamide]: the IC50 is 50.6 nM.

Turning to `CCn1cc(S(=O)(=O)N2CCC3(CC2)C[C@@H](NC[C@H](O)COc2cccc(S(N)(=O)=O)c2)CO3)c(=O)c2ccc(F)cc21` [Compound 543, 3-((S)-3-((R)-8-(1-ethyl-7-fluoro-4-oxo-1,4-dihydroquinolin-3-ylsulfonyl)-1-oxa-8-azaspiro[4.5]decan-3-ylamino)-2-hydroxypropoxy)benzenesulfonamide], the IC50 was determined as 66.7 nM. Turning to `CCNS(=O)(=O)c1cccc(OC[C@@H](O)CNC2COC3(CCN(S(=O)(=O)c4ccc5c(c4)NC(=O)CO5)CC3)C2)c1` (stereo partly drawn) [Compound 228, N-ethyl-3-((2S)-2-hydroxy-3-(8-(3-oxo-3,4-dihydro-2H-benzo[b][1,4]oxazin-6-ylsulfonyl)-1-oxa-8-azaspiro[4.5]decan-3-ylamino)propoxy)benzenesulfonamide], the IC50 stood at 24.2 nM.
